Measured values reported in patent US11091460B2, “Syk inhibitor and use method therefor” (CHIA TAI TIANQING PHARMACEUTICAL GROUP CO., LTD., priority 2017, dated 2021).
pIC50: −log10 of the molar value.

How the values were obtained:
[1] = biological target: T1, SYK kinase (Homo sapiens, UniProt P43405); assay: In vitro test of the inhibition effect on SYK kinase (HTRF); assay type: biochemical; conditions: tyrosine kinase 0.0156 ng/μL, substrate 0.2 uM, ATP 2 uM, 23° C. 1 hour, read-out: Inhibit SYK kinase IC50
T1 construct: purchased Invitrogen PV3857
Description: Experimental Example 1: In Vitro Test of the Inhibition Effect of the Example Compounds on SYK Kinase
Adenosine triphosphate concentration was controlled at 2 uM. • 4) Loaded with a Multidrop automatic dispenser, and a mixture of tyrosinase solution and tyrosine kinase-substrate-biotin/adenosine triphosphate was added in an amount of 5 ul per well, and incubated at 23° C. for 1 hour. • c) Detection phase: • 1) Added 13.33 mL of ethylenediaminetetraacetic acid solution to the Detection Buffer in the kit, added the specified amount of […] (Eu)-labeled antibody and streptavidin XL-665, and prepared the detection solution. • 2) Loaded with a Multidrop automatic dispenser, and 10 uL of the detection solution per well, incubated at 23° C. for 1 hour. It terminated the reaction of the enzyme and substrate mixture. • 3) Reading after centrifugation on a multi-function microplate reader, • d) Data Analysis: Analyzed the data with XL-Fit, and calculated the IC50 value of the compound.

[2] = tested on: AKT phosphorylation; assay: In vitro test of the inhibition effect on AKT phosphorylation (ELISA, Ramos cells); assay type: cell-based; conditions: Homo sapiens, Ramos, Ramos cell line, compound 1 hour, goat anti-human IgM 10 ug/ml for 10 minutes, Phospho-AKT 1/2/3 (ser473) ELISA; read-out: Inhibit AKT phosphorylation IC50
Description: Experimental Example 2: In Vitro Test of the Inhibition Effect of the Example Compounds on AKT Phosphorylation
• 2.1 Experimental Purpose: Intracellular protein kinase AKT phosphorylation detected by experiment was measured by enzyme-linked immunosorbent assay (ELISA), and the inhibition of the compound on protein kinase AKT phosphorylation was evaluated by an index of the half-cell inhibition concentration (IC50) value of the compound. • 2.2 Experimental Materials: • Cell line: Ramos cell line • Cell culture medium (RPMI1640, Invitrogen #22400-105; 10% serum Gibco #10099-141; L-glutamine 1×, Gibco #25030-081) • Experimental medium (without serum, RPM11640, Invitrogen #22400-105; L-glutamine 1×, Gibco #25030) • Lysis buffer (trishydroxymethylaminomethane hydrochloride, Invitrogen15567-1000 ml; sodium chloride, domestic; sodium deoxycholate, Sigma30970-25 G; polyethylene glycol octylphenyl ether, SigmaT9284-100 ml; dodecane sodium sulfonate, SigmaL3771; ethylenediaminetetraacetic acid, Invitrogen15575-038-100 ml; ultrapure water, MilliQ) • Protease inhibitor (Roche, 4693159001-30/BOX) • Phosphatase inhibitor mixture 2 (Sigma, P5726-5 ML) • Phosphatase inhibitor mixture 3 (Sigma, P0044-5 ML) • Goat Anti-Human immunoglobulin M (F(ab′)2 Goat Anti-Human IgM) (Jackson Immuno Research-109-006-129) • Phosphorylated AKT assay kit (Phospho-AKT 1/2/3 (ser473)) (TGR Bioscience, EKT002) • 10× Hank's balanced salt solution (Gibco #14065-056) • 96-well cell plate (Greiner #655090) • Compound V-well dilution plate (Axygen #WITP02280) • CO2 incubator (Thermo #371) • Centrifuge (Eppendorf #581 OR) • Vi-cell cell counter (Beckman Coulter) • Pipette (Eppendorf) • Pipette (Greiner) • Pipetting gun (Eppendorf) • Multi-purpose microplate reader (Envision Reader) • 2.3 Experimental procedures and methods: • a) Cell Seeding (Ramos Cells) • 1) The medium was preheated in a 37° C. water bath. Suspended cells and their culture solution were aspirated, centrifuged at 1000 rpm for 5 minutes. • 2) Aspirated the cell culture medium, added 10 mL of pre-warmed medium to the centrifuge tube, blew off the resuspended cells, pipette 1 mL of the cell suspension, and counted with Vi-cell; • 3) The Ramos cells were diluted with a medium to a density of 5×10^6/mL, and the diluted cells were added to a 96-well cell culture plate (100 μL/well) using a lance. Placed the cell plates in a 37° C., 5% CO2 incubator for overnight. • b) Cell starvation: • 1) After cultured the inoculation cells for overnight, centrifuged at 1000 rpm for 5 minutes on the next day, aspirated the original medium by a lance, added serum-free experimental medium, placed the cell plates in a 37° C., 5% CO2 incubator, and starved for overnight. • c) Compound preparation and dosing: • 1) The compound was diluted with dimethyl sulfoxide to give an initial concentration of 5 mM. A triple gradient dilution was done with compound V dilution plate to make 10 concentration points. • 2) Took another new compound V-well dilution plate, added 198 ul of serum-free experimental medium to each well, and then added 2 ul of the diluted compound above to each well, and mixed with a lance. […]

pIC50 [1] | pIC50 [2] | SMILES
7.09 | 6.88 | Cn1c(=O)c(Nc2ccc(N3CCOCC3)cc2)nc2ccc(-c3c[nH]cn3)cc21 [Example 31, 7-(1H-imidazol-4-yl)-1-methyl-3-((4-morpholinephenyl)amino)quinoxaline-2(1H)-one]
7.41 |  | Cn1c(=O)c(Nc2ccc(N3CCOCC3)nc2)nc2ccc(-c3cn[nH]c3)cc21 [Example 53, 1-Methyl-3-((6-morpholinepyridin-3-yl)amino)-7-(1H-pyrazol-4-yl) quinoxaline-2(1H)one]
7.31 |  | Cn1c(=O)c(Nc2ccc(N3CCOCC3)c(Cl)c2)nc2ccc(-c3cn[nH]c3)cc21 [Example 50, 3-((3-Chloro-4-morpholinephenyl)amino)-1-methyl-7-(1H-pyrazol-4-yl)quinoxaline-2(1H)-one]
7.23 |  | Cn1c(=O)c(Nc2ccc(N3CCC(O)(C(F)(F)F)CC3)cn2)cc2cc(-c3cc[nH]n3)ccc21 [Example 5]
7.53 |  | Cn1c(=O)c(Nc2ccc(NC3CCOCC3)nc2)nc2ccc(-c3cn[nH]c3)cc21 [Example 56, 1-Methyl-7-(1H-pyrazol-4-yl)-3-((6-((tetrahydro-2H-pyran-4-yl)amino)pyridin-3-yl)amino)quinoxaline-2(1H)-one]
7.57 | 6.77 | Cn1c(=O)c(Nc2ccc(C3(F)COC3)cn2)cc2c(F)c(-c3cc[nH]n3)ccc21 [Example 23, 5-Fluoro-3-[[5-(3-fluorooxetan-3-yl)pyridin-2-yl]amino]-1-methyl-6-(1H-pyrazol-3-yl)quinoline-2(1H)-one]
7.91 | 6.76 | Cn1c(=O)c(Nc2ccc(C(C)(O)C(F)(F)F)cn2)cc2c(F)c(-c3cc[nH]n3)ccc21 (single isomer, unassigned) [Example 24, 5-Fluoro-1-methyl-6-(1H-pyrazol-3-yl)-3-((5-(1,1,1-trifluoro-2-hydroxypropan-2-yl)pyridine-2-yl)amino)quinoline-2(1H)-one]
8.19 |  | CCS(=O)(=O)N1CCN(c2ccc(Nc3nc4ccc(-c5cn[nH]c5)cc4n(C)c3=O)cc2)CC1 [Example 36, 3-((4-(4-(Ethylsulfonyl)piperazin-1-yl)phenyl)amino)-1-methyl-7-(1H-pyrazol-4-yl)quinoxaline-2(1H)-one]
7.20 |  | Cn1c(=O)c(Nc2ccc(N3CCOCC3)cc2)nc2ccc(-c3cnc(N)[nH]3)cc21 [Example 57, 7-(2-Amino-1H-imidazol-5-yl)-1-methyl-3-((4-morpholinephenyl)amino)quinoxaline-2(1H)-one]
6.79 |  | Cn1c(=O)c(Nc2cccc(N3CCN(S(C)(=O)=O)CC3)c2)nc2ccc(-c3cn[nH]c3)cc21 [Example 40, 1-Methyl-3-((3-(4-(methylsulfonyl)piperazin-1-yl)phenyl)amino)-7-(1H-pyrazol-4-yl)quinoxaline-2(1H)-one]
7.52 |  | Cn1c(=O)c(Nc2ccc(N3CCOCC3)cc2)nc2cc(Cl)c(-c3cn[nH]c3)cc21 [Example 42, 6-Chloro-1-methyl-3-((4-morpholinephenyl)amino)-7-(1H-pyrazol-4-yl)quinoxaline-2(1H)-one]
6.62 |  | Cn1c(=O)c(Nc2ccc(N3CCOCC3)cc2F)nc2ccc(-c3cn[nH]c3)cc21 [Example 47, 3-((2-Fluoro-4-morpholinephenyl)amino)-1-methyl-7-(1H-pyrazol-4-yl)quinoxaline-2(1H)-one]
6.03 |  | C[C@@H]1COCCN1c1ccc(Nc2cc3c(F)c(-c4cc[nH]n4)ccc3n(C)c2=O)nc1 [Example 13, (R) 5-fluoro-1-methyl-3-((5-(3-methylmorpholine)pyridin-2-yl)amino)-6-(1H-pyrazol-3-yl)quinoline-2(1H)-one]
6.94 |  | Cn1c(=O)c(Nc2ccc(N3CCOCC3)cc2)nc2ccc(-c3cn[nH]c3)c(Cl)c21 [Example 43, 8-Chloro-1-methyl-3-((4-morpholinephenyl)amino)-7-(1H-pyrazol-4-yl)quinoxaline-2(1H)-one]
7.65 |  | Cc1cc(Nc2nc3ccc(-c4cn[nH]c4)cc3n(C)c2=O)ccc1N1CCOCC1 [Example 49]
6.67 |  | Cn1c(=O)c(Nc2ccc(N3CCOCC3)cc2)nc2ccc(-c3nccs3)cc21 [Example 32, 1-Methyl-3-((4-morpholinephenyl)amino)-7-(thiazol-2-yl)quinoxaline-2(1H)-one]
7.53 |  | Cn1c(=O)c(Nc2ccc(N3CCOCC3)cn2)nc2ccc(-c3cn[nH]c3)cc21 [Example 52, 1-Methyl-3-((5-morpholinepyridin-2-yl)amino)-7-(1H-pyrazol-4-yl)quinoxaline-2(1H)one]
6.63 |  | C[C@H]1COCCN1c1ccc(Nc2cc3c(F)c(-c4cc[nH]n4)ccc3n(C)c2=O)nc1 [Example 14, (S) 5-fluoro-1-methyl-3-((5-(3-methylmorpholine)pyridin-2-yl)amino)-6-(1H-pyrazol-3-yl)quinoline-2(1H)-one]
6.70 |  | Cn1c(=O)c(Nc2ccc(N3CCOCC3)cc2)nc2ccc(-c3cnc(N)s3)cc21 [Example 58, 7-(2-Aminothiazol-5-yl)-1-methyl-3-((4-morpholinephenyl)amino)quinoxaline-2(1H)-one]
6.64 |  | Cn1c(=O)c(Nc2ccc(N3CCOCC3)cc2)nc2ccc(-c3ccncc3)cc21 [Example 28, 1-Methyl-3-((4-morpholinephenyl)amino)-7-(pyridin-4-yl)quinoxaline-2(1H)-one]
7.11 |  | Cn1c(=O)c(Nc2ccc(N3CCOCC3)cc2)nc2ccc(-c3cc[nH]n3)cc21 [Example 27, 1-Methyl-3-((4-morpholinephenyl)amino)-7-(1H-pyrazol-3-yl) quinoxaline-2(1H)-one]
7.59 |  | CN1CCN(S(=O)(=O)c2ccc(Nc3nc4ccc(-c5cn[nH]c5)cc4n(C)c3=O)cc2)CC1 [Example 34, 1-Methyl-3-((4-((4-methylpiperazin-1-yl)sulfonyl)phenyl)amino)-7-(1H-pyrazol-4-yl)quinoxaline-2(1H)-one]
7.41 |  | Cn1c(=O)c(Nc2ccc(C3(O)COC3)cn2)cc2c(F)c(-c3cc[nH]n3)ccc21 [Example 22, 5-Fluoro-3-[[5-(3-hydroxyoxetan-3-yl)pyridin-2-yl]amino]-1-methyl-6-(1H-pyrazol-3-yl)quinoline-2(1H)-one]
6.34 |  | Cn1c(=O)c(Nc2ccc(N3CCOCC3)cc2)nc2ccc(-c3ncc[nH]3)cc21 [Example 30, 7-(1H-imidazol-2-yl)-1-methyl-3-((4-morpholinephenyl)amino)quinoxaline-2(1H)-one]
7.89 |  | COc1cc(Nc2nc3ccc(-c4cn[nH]c4)cc3n(C)c2=O)ccc1N1CCOCC1 [Example 51, 3-((3-Methoxy-4-morpholinephenyl)amino)-1-methyl-7-(1H-pyrazol-4-yl)quinoxaline-2(1H)one]

SMILES | pIC50 [1] | pIC50 [2]
Cn1c(=O)c(Nc2ccc(N3C4CCC3CNC4)cc2)nc2ccc(-c3cn[nH]c3)cc21 [Example 54, 3-[4-(3,8-Diazabicyclo[3.2.1]octane-8-yl)aniline]-1-methyl-7-(1H-pyrazol-4-yl)quinoxaline-2(1H)-one] | 8.30 | 7.16
